Measurements as given in ChEMBL document CHEMBL1128155, “Synthesis and structure-activity relationships of 2-(R) and (S) pyrrolidine-modified analogs of the cholinergic channel activator, ABT-418” (Bioorg Med Chem Lett, 1995).
Values joined by “and” are separate entries in the source; they are usually repeats but may differ in a detail not shown here. Identical values can stand only once.

Assay: Displacement of [3H](-)-cytisine from rat brain nicotinic acetylcholine receptors (nAChR)

| SMILES | Ki |
| --- | --- |
| Cc1cc([C@H]2C[C@H](CF)CN2C)on1 | 16900 nM |
| Cc1cc([C@H]2CC[C@H](C)N2C)on1 | 71 nM and 166 nM |
| Cc1cc([C@@H]2C[C@@H](C)CN2C)on1 | 19 nM |
| Cc1cc([C@H]2C[C@H](C)CN2C)on1 | 946 nM |
| Cc1cc([C@@H]2C[C@H](CF)CN2C)on1 | 1680 nM |
| Cc1cc([C@H]2C[C@@H](CO)CN2C)on1 | 10900 nM |
| Cc1cc([C@@H]2C[C@H](CO)CN2C)on1 (single isomer, unassigned) | 8140 nM |
| Cc1cc([C@@H]2C[C@@H](CF)CN2C)on1 | 155 nM |
| Cc1cc([C@H]2CCCN2C)on1 | 7.4 nM |
| Cc1cc([C@@H]2C[C@@H](CO)CN2C)on1 | 6650 nM |
| Cc1cc([C@H]2C[C@H](CO)CN2C)on1 | 6040 nM |
| Cc1cc([C@@H]2CCCN2C)on1 [ABT-418] | 3 nM |
